Key:
human orexin-2 receptor = target: T1, human orexin-2 receptor (Homo sapiens, UniProt O43614); experiment: Intracellular calcium measurement (FLIPR Tetra), orexin receptor antagonistic activity, OX2; assay type: cell-based; settings: CHO cells expressing human orexin-2 receptor, 3 nM orexin-A
T1 construct: expressed in transfected cells; host or cells: CHO (Chinese hamster ovary) cells, kept under G418 selection
T1 sequence (O43614 1-444): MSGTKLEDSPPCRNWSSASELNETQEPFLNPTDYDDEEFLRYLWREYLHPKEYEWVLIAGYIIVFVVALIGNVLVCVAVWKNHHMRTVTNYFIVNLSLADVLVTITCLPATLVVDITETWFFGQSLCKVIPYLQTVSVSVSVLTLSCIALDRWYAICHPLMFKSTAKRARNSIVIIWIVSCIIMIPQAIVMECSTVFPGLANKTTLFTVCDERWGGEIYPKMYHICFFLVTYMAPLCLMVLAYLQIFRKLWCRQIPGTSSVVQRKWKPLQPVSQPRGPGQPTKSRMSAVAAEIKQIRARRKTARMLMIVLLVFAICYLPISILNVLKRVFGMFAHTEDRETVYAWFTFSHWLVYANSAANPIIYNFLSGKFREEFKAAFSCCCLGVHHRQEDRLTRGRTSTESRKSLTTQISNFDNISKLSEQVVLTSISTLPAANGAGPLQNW
Method: (§1) The orexin receptor antagonistic activity of the compounds of formula (I) is determined in accordance with one of the following experimental methods.
(§2) Chinese hamster ovary (CHO) cells expressing the human orexin-1 receptor and the human orexin-2 receptor, respectively, are grown in culture medium (Ham F-12 with L-Glutamine) containing 300 μg/ml G418, 100 U/ml penicillin, 100 μg/ml streptomycin and 10% heat inactivated fetal calf serum (FCS). The cells are seeded at 20,000 cells/well into 384-well black clear bottom sterile plates (Greiner). The seeded plates are incubated overnight at 37° C. in 5% CO2.
(§3) Human orexin-A as an agonist is prepared as 1 mM stock solution in MeOH:water (1:1), diluted in HBSS containing 0.1% bovine serum albumin (BSA), NaHCO3: 0.375 g/l and 20 mM HEPES for use in the assay at a final concentration of 3 nM. Antagonists are prepared as 10 mM stock solution in DMSO, then diluted in 384-well plates, first in DMSO, then in HBSS containing 0.1% bovine serum albumin (BSA), NaHCO3: 0.375 g/l and 20 mM HEPES.
(§4) On the day of the assay, 50 μl of staining buffer (HBSS containing 1% FCS, 20 mM HEPES, NaHCO3: 0.375 g/l, 5 mM probenecid (Sigma) and 3 μM of the fluorescent calcium indicator fluo-4 AM (1 mM stock solution in DMSO, containing 10% pluronic) is added to each well.
(§5) The 384-well cell-plates are incubated for 50 min at 37° C. in 5% CO2 followed by equilibration at RT for 30-120 min before measurement.
(§6) Within the Fluorescent Imaging Plate Reader (FLIPR Tetra, Molecular Devices), antagonists are added to the plate in a volume of 10 μl/well, incubated for 10 min and finally 10 μl/well of agonist is added. Fluorescence is measured for each well at 1 second intervals, and the height of each fluorescence peak is compared to the height of the fluorescence peak induced by 3 nM orexin-A with vehicle in place of antagonist. For each antagonist, the IC50 value (the concentration of compound needed to inhibit 50% of the agonistic response) is determined and may be normalized using the obtained IC50 value of a on-plate reference compound (normalized values in Table 1 are indicated by an asterisk *). With the FLIPR Tetra, two different conditions (conditions A and conditions B) were used, differing in adjustment of pipetting speed and cell splitting regime. The calculated IC50 values of the compounds may fluctuate depending on the daily cellular assay performance. Fluctuations of this kind are known to those skilled in the art.

human orexin-1 receptor = target: T2, human orexin-1 receptor (Homo sapiens, UniProt O43613); experiment: Intracellular calcium measurement (FLIPR Tetra), orexin receptor antagonistic activity, OX1; assay type: cell-based; settings: CHO cells expressing human orexin-1 receptor, 3 nM orexin-A
T2 construct: expressed in transfected cells; host or cells: CHO (Chinese hamster ovary) cells, kept under G418 selection
T2 sequence (O43613 1-425): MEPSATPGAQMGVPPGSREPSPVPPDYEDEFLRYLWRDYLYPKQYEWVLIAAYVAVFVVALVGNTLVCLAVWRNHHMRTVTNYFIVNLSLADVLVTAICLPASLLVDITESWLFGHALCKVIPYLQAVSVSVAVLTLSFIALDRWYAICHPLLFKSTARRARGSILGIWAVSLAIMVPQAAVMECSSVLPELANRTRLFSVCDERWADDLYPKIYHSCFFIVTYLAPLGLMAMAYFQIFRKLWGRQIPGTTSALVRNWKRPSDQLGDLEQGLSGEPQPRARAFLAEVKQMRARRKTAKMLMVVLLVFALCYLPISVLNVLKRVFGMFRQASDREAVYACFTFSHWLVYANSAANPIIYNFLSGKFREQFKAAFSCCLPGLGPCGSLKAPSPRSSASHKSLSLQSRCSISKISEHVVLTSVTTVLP
Method: as §1, §2, §3, §4, §5, §6

[1] = conditions B, normalized (*) using IC50 of on-plate reference compound

Q: For `Cc1cccc(-c2sc(N)nc2C(=O)N(CCc2c[nH]c3ccc(Br)cc23)CC2CC2)c1` [Example 223, 2-Amino-5-m-tolyl-thiazole-4-carboxylic acid [2-(5-bromo-1H-indol-3-yl)-ethyl]-cyclopropylmethyl-amide], which IC50 (human orexin-2 receptor; conditions B) is on record?
A: 135 nM

Q: What about the IC50 (human orexin-1 receptor; conditions B) of the same compound?
A: 5 nM

Q: For `Cc1nc(C(=O)N(CCc2ccc(C(F)(F)F)cc2)CC2CC2)c(-c2ccc(C)c(C)c2)s1` [Example 192, 5-(3,4-Dimethyl-phenyl)-2-methyl-thiazole-4-carboxylic acid cyclopropylmethyl-[2-(4-trifluoromethyl-phenyl)-ethyl]-amide], which IC50 (human orexin-2 receptor; conditions B) is on record?
A: 719 nM

Q: And the IC50 (human orexin-1 receptor; conditions B)?
A: > 10000 nM

Q: Which results are given for `COc1cccc(-c2ncncc2C(=O)N(CCc2c[nH]c3ccccc23)CC2CC2)c1` [Example 506, 4-(3-Methoxy-phenyl)-pyrimidine-5-carboxylic acid cyclopropylmethyl-[2-(1H-indol-3-yl)-ethyl]-amide]?
A: IC50 (human orexin-2 receptor; [1]): 15 nM; IC50 (human orexin-1 receptor; [1]): 259 nM

Q: How did the IC50 (human orexin-2 receptor; conditions B) turn out when `CCN(CCc1ccc(OC)c(OC)c1)C(=O)c1nc(N)sc1-c1cccc(C)c1` [Example 107, 2-Amino-5-m-tolyl-thiazole-4-carboxylic acid [2-(3,4-dimethoxy-phenyl)-ethyl]-ethyl-amide] was run?
A: 2 nM

Q: And the IC50 (human orexin-1 receptor; conditions B)?
A: 41 nM

Q: `CNc1nc(C(=O)N(CCc2c[nH]c3ccc(F)cc23)CC2CC2)c(-c2cccc(C)c2)s1` [Example 435, 2-Methylamino-5-m-tolyl-thiazole-4-carboxylic acid cyclopropylmethyl-[2-(5-fluoro-1H-indol-3-yl)-ethyl]amide] was tested. Which IC50 (human orexin-2 receptor; [1]) did it give?
A: 32 nM

Q: And the IC50 (human orexin-1 receptor; [1])?
A: 54 nM

Q: Which results are given for `COc1ccc(-c2sc(C)nc2C(=O)N(CCc2c[nH]c3ccc(F)cc23)CC(=O)N(C)C)cn1` [Example 303, 5-(6-Methoxy-pyridin-3-yl)-2-methyl-thiazole-4-carboxylic acid dimethylcarbamoylmethyl-[2-(5-fluoro-1H-indol-3-yl)-ethyl]-amide]?
A: IC50 (human orexin-2 receptor; [1]): 551 nM; IC50 (human orexin-1 receptor; [1]): 2350 nM

Q: With `COC(=O)CN(CCc1c[nH]c2ccc(F)cc12)C(=O)c1cnc(C)nc1-c1ccc(Cl)c(Cl)c1` [Example 604, {[4-(3,4-Dichloro-phenyl)-2-methyl-pyrimidine-5-carbonyl]-[2-(5-fluoro-1H-indol-3-yl)-ethyl]-amino}-acetic acid methyl ester] as the compound, how does the IC50 (human orexin-2 receptor; [1]) read?
A: 196 nM

Q: What about the IC50 (human orexin-1 receptor; [1]) of the same compound?
A: 421 nM

Q: With `COc1ccc(-c2cccnc2C(=O)N(CCO)CCc2c[nH]c3ccc(F)cc23)cn1` [Example 318, 6′-Methoxy-[3,3′]bipyridinyl-2-carboxylic acid [2-(5-fluoro-1H-indol-3-yl)-ethyl]-(2-hydroxy-ethyl)-amide] as the compound, how does the IC50 (human orexin-2 receptor; [1]) read?
A: 848 nM

Q: What about the IC50 (human orexin-1 receptor; [1]) of the same compound?
A: > 5420 nM

Q: Which IC50 (human orexin-2 receptor; conditions B) does the source give for `COc1ccc(CCN(CC2CC2)C(=O)c2nc(C)sc2-c2ccc(C)c(C)c2)cc1C` [Example 202, 5-(3,4-Dimethyl-phenyl)-2-methyl-thiazole-4-carboxylic acid cyclopropylmethyl-[2-(4-methoxy-3-methyl-phenyl)-ethyl]-amide] here?
A: 22 nM

Q: What about the IC50 (human orexin-1 receptor; conditions B) of the same compound?
A: 447 nM

Q: Which results are given for `COc1ccc(-c2cccnc2C(=O)N(CCc2c[nH]c3ccc(F)cc23)CC2CC2)cn1` [Example 400, 6′-Methoxy-[3,3′]bipyridinyl-2-carboxylic acid cyclopropylmethyl-[2-(5-fluoro-1H-indol-3-yl)-ethyl]-amide]?
A: IC50 (human orexin-2 receptor; [1]): 11 nM; IC50 (human orexin-1 receptor; [1]): 62 nM

Q: Which results are given for `COC(=O)CN(CCc1c[nH]c2ccc(F)cc12)C(=O)c1ncccc1-c1ccc(OC)nc1` [Example 315]?
A: IC50 (human orexin-2 receptor; [1]): 116 nM; IC50 (human orexin-1 receptor; [1]): 847 nM

Q: What does the source list for `CCN(CCc1c[nH]c2ccccc12)C(=O)c1cncnc1-c1ccc(Br)c(Cl)c1` [Example 536, 4-(4-Bromo-3-chloro-phenyl)-pyrimidine-5-carboxylic acid ethyl-[2-(1H-indol-3-yl)-ethyl]-amide]?
A: IC50 (human orexin-2 receptor; [1]): 9 nM; IC50 (human orexin-1 receptor; [1]): 262 nM

Q: Which IC50 (human orexin-2 receptor; conditions B) does the source give for `COc1ccc(CCN(CCO)C(=O)c2nc(C)sc2-c2ccc(C)c(C)c2)cc1OC` [Example 126, 5-(3,4-Dimethyl-phenyl)-2-methyl-thiazole-4-carboxylic acid [2-(3,4-dimethoxy-phenyl)-ethyl]-(2-hydroxy-ethyl)-amide] here?
A: 4 nM

Q: What about the IC50 (human orexin-1 receptor; conditions B) of the same compound?
A: 170 nM

Q: Which IC50 (human orexin-2 receptor; [1]) does the source give for `COc1ccc(-c2cccnc2C(=O)N(CCc2c[nH]c3ccc(F)cc23)CC(N)=O)cn1` [Example 313, 6′-Methoxy-[3,3′]bipyridinyl-2-carboxylic acid carbamoylmethyl-[2-(5-fluoro-1H-indol-3-yl)-ethyl]-amide] here?
A: 526 nM

Q: What about the IC50 (human orexin-1 receptor; [1]) of the same compound?
A: 5260 nM

Q: Which IC50 (human orexin-2 receptor; conditions B) does the source give for “2-Methyl-5-m-tolyl-thiazole-4-carboxylic acid [2-cyclopropyl-amino-2-(3,4-dimethoxy-phenyl)-ethyl]-cyclopropylmethyl-amide [Example 432]” here?
A: 75 nM

Q: And the IC50 (human orexin-1 receptor; conditions B)?
A: 234 nM

Q: `COc1ccc(-c2cccnc2C(=O)N(CCc2c[nH]c3cc(Cl)ccc23)CC2CC2)cn1` [Example 353] was tested. Which IC50 (human orexin-2 receptor; [1]) did it give?
A: 23 nM

Q: What about the IC50 (human orexin-1 receptor; [1]) of the same compound?
A: 87 nM

Q: Which IC50 (human orexin-2 receptor; [1]) does the source give for `Cc1ccc(-c2sc(C3CC3)nc2C(=O)N(CCc2c[nH]c3ccc(F)cc23)CC2CC2)cc1F` [Example 276, 2-Cyclopropyl-5-(3-fluoro-4-methyl-phenyl)-thiazole-4-carboxylic acid cyclopropylmethyl-[2-(5-fluoro-1H-indol-3-yl)-ethyl]-amide] here?
A: 601 nM

Q: What about the IC50 (human orexin-1 receptor; [1]) of the same compound?
A: 2260 nM

Q: `COc1ccc(C(O)CN(CC2CC2)C(=O)c2ncsc2-c2cccc(C(F)(F)F)c2)cc1OC` (centres unmarked) [Example 85, 5-(3-Trifluoromethyl-phenyl)-thiazole-4-carboxylic acid cyclopropylmethyl-[2-(3,4-dimethoxy-phenyl)-2-hydroxy-ethyl]-amide] was tested. Which IC50 (human orexin-2 receptor; conditions A) did it give?
A: 551 nM

Q: What about the IC50 (human orexin-1 receptor; conditions A) of the same compound?
A: > 10000 nM

Q: Which results are given for `Cc1cccc(-c2sc(N)nc2C(=O)N(CCc2c[nH]c3c(F)cccc23)CC2CC2)c1` [Example 234, 2-Amino-5-m-tolyl-thiazole-4-carboxylic acid cyclopropylmethyl-[2-(7-fluoro-1H-indol-3-yl)-ethyl]-amide]?
A: IC50 (human orexin-2 receptor; conditions B): 16 nM; IC50 (human orexin-1 receptor; conditions B): 5 nM

Q: Which IC50 (human orexin-2 receptor; [1]) does the source give for `Cc1cccc2c(CCN(CC3CC3)C(=O)c3nccnc3-c3ccccc3)c[nH]c12` [Example 326, 3-Phenyl-pyrazine-2-carboxylic acid cyclopropylmethyl-[2-(7-methyl-1H-indol-3-yl)-ethyl]-amide] here?
A: 8 nM

Q: And the IC50 (human orexin-1 receptor; [1])?
A: 76 nM

Q: For `O=C(c1cncnc1-c1ccccc1)N(CCc1c[nH]c2cc(F)c(Cl)cc12)CC1CC1` [Example 471, 4-Phenyl-pyrimidine-5-carboxylic acid [2-(5-chloro-6-fluoro-1H-indol-3-yl)-ethyl]-cyclopropylmethyl-amide], which IC50 (human orexin-2 receptor; [1]) is on record?
A: 25 nM

Q: And the IC50 (human orexin-1 receptor; [1])?
A: 97 nM

Q: Which results are given for `Cc1cccc(-c2sc(N)nc2C(=O)N(CCc2c[nH]c3ccc(F)cc23)CC2CC2)c1` [Example 232, 2-Amino-5-m-tolyl-thiazole-4-carboxylic acid cyclopropylmethyl-[2-(5-fluoro-1H-indol-3-yl)-ethyl]-amide]?
A: IC50 (human orexin-2 receptor; conditions B): 16 nM; IC50 (human orexin-1 receptor; conditions B): 7 nM
